The values that follow come from patent publication US12516038B2, “Inhibitors of antigen presentation by HLA-DR” (Janssen Pharmaceutica NV, priority 2020, dated 2026).

The target of one experiment is HLA-DRB1*0401 (Homo sapiens (Human), UniProt P01903+P01911, A100K/A169T/DEL228-266/F76Y/I96L/K127E/L162R/M171V/N62H/P40V/Q125Y/R42H/S133A/S149N/S66Y/V115G/V209L/W38E). In words: HLA-DR4 HTRF assay. As to conditions: inhibition of loading of Alexa Fluor 647-labeled Cit-CII peptide onto HLA-DR4 (CLIP cleaved). It counts as binding. The text has this: (§1) The screening was made through two sets of HLA-DR/peptide-dependent assays: a peptide-dependent Homogeneous Time Resolved Fluorescence (HTRF) binding assay followed by an HLA-DR dependent, peptide-specific T cell functional assay (HLA-DR4-restricted peptide-specific T cell-based assay hybridoma assay). The HTRF binding assay was designed to measure the ability of the small molecule to inhibit the loading of a fluorescently labeled high-affinity peptide onto HLA-DR peptide binding groove. The peptide-specific T cell functional assay assesses T cell activation resulting from proper peptide presentation onto HLA-DR expressed on the surface of the antigen-presenting cells to the T cell and is used to screen compounds able to inhibit such HLA-DR/peptide-dependent T cell activation.
The HLA-DR4 HTRF assay is based on HTRF technology and designed to measure ability of compounds to prevent loading of high-affinity Alexa Fluor 647-labeled Citrullinated Collagen 111236-1249 peptide (named Cit-CII/AF647, aa1236-1249, LQYM-Cit-ADQAAGGLR; Alexa Fluor 647 dye commercially available from Invitrogen) onto HLA-DRB1*0401. The HTRF assay technology is based on the energy transfer between two fluorophores, a donor and an acceptor, when in close proximity. The HLA-DR4 protein construct was uniquely designed for this assay and has (i) the α and […] subunits fused to human Fc chains and (ii) the invariant chain-associated peptide (CLIP peptide, aa85-101), the universal moderate/low-affinity HLA-DR binder, attached to the beta chain through a HRV3C protease-cleavable linker.
Because of the low stability of peptide free HLA-DR4 heterodimer, the construct was purified and delivered with CLIP peptide attached to the N-terminal of the β chain. The HLA-DR4 heterodimer was pre-treated with 3 μL HRV3C protease (Novagen E71493-3) (˜2 U/μL) per mg of the cleavable protein to cleave CLIP peptide and incubated overnight (>16 hrs) at 4° C. This method yielded at least 80% cleavage and allowed the CLIP peptide to be potentially exchanged with the fluorescently labeled high affinity cit-CII1236-1249 peptide. A batch of […] protein with CLIP cleaved was prepared for multiple experiments and was stable for several months when stored at 4° C.
In this assay, anti-human Fc antibody labeled with Tb-Cryptate probe was used as the donor (commercially available from Cisbio—PAb Anti-human IgG-Tb Cryptate, Cat #61HFCTAB) and high affinity peptide Citrullinated CII (cit-CII) labeled with Alexa 647 fluorophore was utilized as the acceptor. Inhibitors of the exchange of the pre-cleaved CLIP peptide for the high affinity cit-CII1236-1249 peptide onto HLA-DRB1*04:01 caused a decrease in HTRF signal as measured by the ratio of the 665 nm/620 nm emitted signal. Screening compounds were robotically pre-dispensed (150 nL, Hummingbird, DigiLab/CyBio AG) onto black, round bottom, nontreated, 1536-well assay plates (Corning #3939), were incubated with 3 nM HLA-DR4 (with CLIP cleaved) plus 1 nM Human IgG-Tb (anti-Fc-Tb) Antibody for 45 min prior to addition of 40 nM Cit-CII peptide labeled with Alexa-647. The negative control was DMSO plus 1 nM Human IgG-Tb (anti-Fc-Tb) Antibody, incubated for 45 minutes before addition of 40 nM Cit-CII peptide labeled with Alexa-647. The positive control was DMSO plus 3 nM HLA-DR4 (with CLIP cleaved) plus 1 nM Human IgG-Tb (anti-Fc-Tb) Antibody with 40 nM Cit-CII peptide labeled with Alexa-647 added after a 45-minute incubation. Plates were centrifuged at 1000 rpm for 1 minute and then incubated at 37° C., at 90% relative humidity for 90 minutes. After incubation, plates were read on a spectrophotometer, the Pherastar FS (BMG Labtech), in HTRF mode. The HTRF ratio as well as percent inhibition was calculated. Curve fitting and IC50 calculation for dose response data was performed by Microsoft Excel, 3DX (Janssen proprietary software) or Graphpad Prism (Graphpad Software, San Diego, CA). […]
A general note: Time-resolved FRET reads energy transfer from a long-lived donor to a nearby acceptor.

Experiment [1] deals with HLA-DR4 restricted mouse T cell hybridoma line (DR4.CII.36.8) with HLA-DRB1*04:01-expressing Boleth cells. In words: HLA-DR4-restricted peptide-specific T cell-based assay (hybridoma assay). As to conditions: 6 h, inhibition of IL-2 production, CII259-273 peptide presented by Boleth cells.
From the text: as §1
HLA-DR4-Restricted Peptide-Specific T Cell-Based Assay (Hybridoma Assay)
The hybridoma assay was used to measure compound inhibition of TL-2 production from an HLA-DR4 restricted mouse T cell hybridoma line (DR4.CII.36.8) that was antigen-specific for collagen II259-273 (CII259-273) peptide when presented with an HLA-DR4 expressing Antigen Presenting Cell (APC) cell line (i.e., Boleth).
To the HLA-DRB1*04:01-expressing B cell line (Boleth cell line from International Histocompatibility Working Group (IHWG), ref #IHW09031) was presented the collagen II 259-273 peptide (CII259-273, GIAGFKGEQGPKGEP) to mouse T cell hybridoma (DR4.CII.36.8 T cell hybridoma; clone 36.8, expressing a CII259-273-specific, HLA-DRB1*04:01-restricted T cell receptor). Upon proper CII259-273 peptide presentation, the T cell hybridoma was activated and thus produced IL-2 cytokine, whose level in the cell culture supernatant was detected using mouse IL-2 AlphaLISA kit (Perkin Elmer, Cat: AL511F).
This assay was performed in a 384-well plate (polypropylene V-bottom Greiner bio-one, ref #784075) by: (i) pre-incubation of 20 μL of 1.25 million/mL Boleth cells (25,000 cells) resuspended in DMEM/1% fetal calf serum (FCS; Gibco, ref #16140-071) with 20 μL of 2.5× final concentration of compound of interest in DMEM/1% serum/0.75% DMSO at 37° C. for 1 hr in the incubator, then (ii) 10 μL of 5 million/mL (50,000 cells) DR4.CII.36.8 T cell hybridoma cells resuspended in DMEM/1% FCS was added and incubated for 6 h at 37° C. in the incubator. Supernatant was then collected and mouse IL-2 detected using AlphaLISA kit (ref #AL511F). Compounds were tested in duplicate, with 8-point titration. Mean±SD of AlphaLISA units at each compound concentration was used for compound IC50 calculation. The negative control for this experiment was run without peptide stimulation and used a DMSO vehicle wherein no compound of interest was added. The positive control was run with peptide stimulation and used a DMSO vehicle wherein no compound of interest was added. Both the negative and positive controls were run in 8 replicates each. Curve fitting and IC50 calculation for dose response data was performed by GraphPad software 6 or higher (GraphPad Software, San Diego, CA). Dose response data was plotted versus the log of compound concentration and IC50 was determined using 4-parameter logistic (4-PL) curve fitting.

The term pIC50 denotes the IC50 on a negative log10 scale, so that one unit is a factor of ten. Low values mean a high IC50, high ones a low IC50.

Each structure is given as a SMILES string. pIC50: −log10 of the molar value. Some results are limits rather than exact numbers.

As for `Cc1cc([C@H](Oc2ccc3c(c2)OCCC3=O)c2ccncc2)ccc1C(N)=O` (single isomer, unassigned) [Example 35b, (*S)-2-methyl-4-(((4-oxochroman-7-yl)oxy)(pyridin-4-yl)methyl)benzamide], the negative-log IC50 (pIC50) on HLA-DRB1*0401 is 6.08; in experiment [1] (Mus musculus, T-cell), 5.28.
On the same counts, the results for `Cc1cc(C(N)=O)ccc1[C@@H](Oc1ccc2c(c1)OCCC2=O)c1ccncc1` (single isomer, unassigned) [Example 36b, (*S)-3-methyl-4-(((4-oxochroman-7-yl)oxy)(pyridin-4-yl)methyl)benzamide] are 6.24 and 5.29.
`C[C@@H]1CC(=O)c2ccc(O[C@H](c3ccncc3)c3ccc(C(N)=O)cc3)cc2O1` (single isomer, unassigned) [Example 39a, 4-((*S)—(((*R)-2-Methyl-4-oxochroman-7-yl)oxy)(pyridin-4-yl)methyl)benzamide]: the pIC50 against HLA-DRB1*0401 is 5.96; in experiment [1] (Mus musculus, T-cell), 4.85.
For `C[C@H]1CC(=O)c2ccc(O[C@H](c3ccncc3)c3ccc(C(N)=O)cc3)cc2O1` (single isomer, unassigned) [Example 39d, 4-((*S)—(((*S)-2-Methyl-4-oxochroman-7-yl)oxy)(pyridin-4-yl)methyl)benzamide] the same measures were 6.00 and 4.82.
With `CC[C@@H]1CC(=O)c2ccc(O[C@H](c3ccncc3)c3ccc(C(N)=O)cc3)cc2O1` (single isomer, unassigned) [Example 41a, 4-((*S)—(((*R)-2-ethyl-4-oxochroman-7-yl)oxy)(pyridin-4-yl)methyl)benzamide], the pIC50 against HLA-DRB1*0401 was 5.92; in experiment [1] (Mus musculus, T-cell), less than 4.82.
Take `C[C@H]1COc2cc(O[C@@H](c3ccncc3)c3ccc(C(N)=O)cc3)ccc2C1=O` (single isomer, unassigned) [Example 44c, 4-((*R)—(((*S)-3-Methyl-4-oxochroman-7-yl)oxy)(pyridin-4-yl)methyl)benzamide]: the pIC50 was 5.89 on HLA-DRB1*0401 and less than 4.82 in experiment [1] (Mus musculus, T-cell).
On the same counts, the results for `C[C@H]1COc2cc(O[C@H](c3ccncc3)c3ccc(C(N)=O)cc3)ccc2C1=O` (single isomer, unassigned) [Example 44d, 4-((*S)—(((*S)-3-Methyl-4-oxochroman-7-yl)oxy)(pyridin-4-yl)methyl)benzamide] are 6.07 and less than 4.82.
With `NC(=O)c1ccc([C@H](Oc2cc(F)c3c(c2)OCCC3=O)c2ccncc2)cc1` (single isomer, unassigned) [Example 51b, (*S)-4-(((5-Fluoro-4-oxochroman-7-yl)oxy)(pyridin-4-yl)methyl)benzamide], the pIC50 against HLA-DRB1*0401 was 5.46; in experiment [1] (Mus musculus, T-cell), 4.82.
For `NC(=O)c1ccc([C@H](Oc2cc3c(cc2F)C(=O)CCO3)c2ccncc2)cc1` (single isomer, unassigned) [Example 52b, (*S)-4-(((6-Fluoro-4-oxochroman-7-yl)oxy)(pyridin-4-yl)methyl)benzamide], the pIC50 at HLA-DRB1*0401 was 6.52; in experiment [1] (Mus musculus, T-cell), 5.07.
With `Cc1c(O[C@H](c2ccc(Cl)cc2)c2ccc(C(N)=O)cc2)ccc2c1OCCC2=O` (single isomer, unassigned) [Example 57b, (*S)-4-((4-chlorophenyl)((8-methyl-4-oxochroman-7-yl)oxy)methyl)benzamide], the negative-log IC50 (pIC50) at HLA-DRB1*0401 is 5.70; in experiment [1] (Mus musculus, T-cell) it was less than 4.82.
For `Cc1c(O[C@@H](c2ccc(C#N)cc2)c2ccc(C(N)=O)cc2)ccc2c1OCCC2=O` (single isomer, unassigned) [Example 59b, (*S)-4-((4-cyanophenyl)((8-methyl-4-oxochroman-7-yl)oxy)methyl)benzamide] the same measures were 5.89 and less than 4.82.
On the same counts, the results for `Cc1c(O[C@H](c2ccc(Cl)cc2)c2ccc(C(N)=O)cn2)ccc2c1OCCC2=O` (single isomer, unassigned) [Example 63a, (*R)-6-((4-chlorophenyl)((8-methyl-4-oxochroman-7-yl)oxy)methyl)nicotinamide] are 5.80 and less than 4.82.
For `Cc1c(O[C@H](c2ccc(C(N)=O)cc2)c2cccc[n+]2[O-])ccc2c1OCCC2=O` (single isomer, unassigned) [Example 65a, (*R)-2-((4-carbamoylphenyl)((8-methyl-4-oxochroman-7-yl)oxy)methyl)pyridine 1-oxide], the pIC50 on HLA-DRB1*0401 is 4.52; in experiment [1], less than 4.82.
Regarding `Cc1c(O[C@H](c2ccc(F)cc2)c2ccc(C(N)=O)cc2)ccc2c1OCCC2=O` (single isomer, unassigned) [Example 66b, (*S)-4-((4-Fluorophenyl)((8-methyl-4-oxochroman-7-yl)oxy)methyl)benzamide], the pIC50 on HLA-DRB1*0401 was 5.62; in experiment [1] (Mus musculus, T-cell) it was less than 4.82.
For `Cc1c(O[C@@H](c2ccc(C(N)=O)cc2)c2cccc(F)c2)ccc2c1OCCC2=O` (single isomer, unassigned) [Example 67b, (*S)-4-((3-Fluorophenyl)((8-methyl-4-oxochroman-7-yl)oxy)methyl)benzamide] the same measures were 5.66 and less than 4.82.
With `Cc1c(O[C@@H](c2ccc(C(N)=O)cc2)c2ccccc2F)ccc2c1OCCC2=O` (single isomer, unassigned) [Example 68b, (*S)-4-((2-Fluorophenyl)((8-methyl-4-oxochroman-7-yl)oxy)methyl)benzamide], the pIC50 on HLA-DRB1*0401 is 5.27; in experiment [1] (Mus musculus, T-cell), less than 4.82.
